Source: patent US10774049B2, “PU.1 inhibitors” (Albert Einstein College of Medicine, priority 2016, dated 2020)
Where a name gives a salt, the structure may show the parent alone. Read-outs that look alike come from different tables or passages of the source.

Legend:
PU.1 transactivation = experiment: GFP reporter expression in bone marrow mononuclear cells of PU.1-GFP knock-in reporter mouse; type: cell-based; details: PU.1-GFP knock-in bone marrow mononuclear cells
Text: To assess on-target activity of our inhibitors in AML cells, we measured transcript levels of well-known PU.1 targets in PU.1 URE^−/− AML cells. It has been shown that PU.1 positively regulates Csf1r, Junb, and autoregulates itself, whereas it represses E2f1. In line with this, we found a decrease in Csf1r, Junb, and PU.1 transcript expression and an increase in E2f1 expression upon treatment with DB2115, or DB2313 (FIG. 4A, left panel). As Csf1r is one of the most sensitive PU.1 targets in myeloid cells, we assessed its expression at different time points (1 h, 4 h, 8 h and 24 h) after drug treatment. […] Furthermore, treatment of bone marrow mononuclear cells isolated from a PU.1-GFP knock-in reporter mouse model led to a decrease in GFP reporter expression after treatment with DB1976, DB2115, or DB2313, further confirming a direct effect of the compounds on PU.1 transactivation (FIG. 4B), and consistent with PU.1 positive autoregulation.

[1] = test system: PU.1 URE−/− AML cell line; experiment: Cell viability/growth of PU.1 URE−/− AML cells; type: cell-based, murine; details: Mus musculus
Experimental: FIG. 2A-2F. PU.1 inhibition decreases cell growth and increases apoptosis of PU.1^1″ leukemic cells. (A) Chemical structures of heterocyclic diamidines DB1976, DB2115 and DB2313 used in this study. (B) Relative cell viability of URE−/− cells and BAF3 cells after treatment with increasing concentrations of vehicle or small molecules. Cell viability was assessed after 48 h. Data represent means of technical triplicate from one representative experiment; fold change compared to Vehicle is shown. (C) Cell proliferation assay of URE−/− after treatment with DB1976 (n=5), DB2115 (n=3), DB2313 (n=3), of MOLM13 cells (n=3), and THP1 cells (n=3). Cell counting was performed every 24 h during 4 days. Data represent means±SD of technical triplicate from one representative experiment. Forward strand: SEQ ID NO:3, and Reverse strand: SEQ ID NO:4; derived from the λB motif from the murine Ig lambda 2-4 enhancer, a known native PU.1-dependent gene and specific binding site for PU.1. (D) Clonogenic capacities of URE−/− cells after treatment with DB1976 (n=5), DB2115 (n=3) and DB2313 (n=4) in the first plating, and after serial replatings (n=3). Data represent means±SD of technical triplicate from one representative experiment. (E) Apoptotic cells (Annexin-V+Dapi−) fraction in URE−/− cells after 48 h of treatment with DB1976 (n=6), DB2115 (n=6) and DB2313 (n=3). Data represent the means±SD of independent experiments; fold change compared to Vehicle is shown. *P<0.05, **P<0.01, ***P<0.001, ****P<0.0001 (F) Dose dependent inhibitor of PU.1-dependent transactivation.
To determine if our PU.1 inhibitors have an effect on PU.1^low-induced AML cells, we treated the PU.1 URE^−/− AML cell line with compounds at different concentrations. Treatment with the drugs led to a profound decrease in growth of PU.1 URE^−/− AML cells after 48 h whereas it had only minimal or no effects on control cells with normal PU.1 levels (BaF3), even at very high doses (FIG. 3A). […] Similar to our observations with PU.1-directed shRNAs, treatment with pharmacological PU.1 inhibitors led to a significant 1.6-, 2- and 3.5-fold increase of apoptotic cells with DB1976, DB2115 and DB2313, respectively, in murine PU.1 URE^−/− AML cells (FIG. 3C), and similar effects in human MOLM13 cells.

[2] = test system: PU.1 occupancy on E2f1, Junb and Csf1r promoters; experiment: Chromatin immunoprecipitation of PU.1 on target promoters in AML cells; type: cell-based; details: ChIP
Experimental: FIG. 3A-3G. Novel inhibitors show on-target PU.1 inhibitory activity. (A) Quantitative RT-PCR analysis of Csf1r, Junb, Sfpi1, E2f1 expression after 72 h (n=6) and, for Csf1r, after 1 h (n=3), 4 h (n=7), 8 h (n=3) and 24 h (n=3) of treatment with the small molecules in URE−/− cells, expression is normalized to GAPDH expression. Data represent means±SD of technical triplicate from one representative experiment; fold change compared to Vehicle is shown. (B) Chromatin immunoprecipitation assay showing PU.1 occupancy on E2f1, Junb, Csf1r promoters after treatment in Umsh cell line (n=5). 10·10^6 cells were collected for each condition after 8 h treatment with a double dose of the small molecules (50 uM for DB1976, 1.4 uM for DB2115 and 660 nM for DB2313) or Vehicle; and processed for ChIP using PU.1 monoclonal antibody. Myogenin was used as a negative control, not regulated by PU.1. Data represent means±SD of technical triplicate from one representative experiment. (C) Cell viability after PU.1 rescue in MOLM13 cells. MOLM13 were transduced with a lentiviral construct expressing either PU.1-GFP (PU.1, black bar) or GFP as a control (empty, white bar), sorted on GFP and plated with DB1976 (n=7), DB2115 (n=8), DB2313 (n=6) or Vehicle. Cell count was performed after 4 days. Data represent means±SD of technical triplicate from one representative experiment; fold change compared to Vehicle is shown. (D-G) Transcriptome analysis of URE−/− cells after 24 h of treatment with DB2313 versus vehicle (n=3). Differentially expressed genes were determined with a fold change at 1.2 and a P value <0.1. […] Deregulated gens in PUER cells were analyzed with a FC at 1.5 and P-value <0.05. […] P-value was calculated using the hypergeometric test. […]
To assess on-target activity of our inhibitors in AML cells, we measured transcript levels of well-known PU.1 targets in PU.1 URE^−/− AML cells. […] As Csf1r is one of the most sensitive PU.1 targets in myeloid cells, we assessed its expression at different time points (1 h, 4 h, 8 h and 24 h) after drug treatment. […]

[3] = after 48 h, read-out: IC50 in PU.1 URE−/− AML

Structure (SMILES) | GFP reporter expression (PU.1 transactivation) | IC50 [1, 3] [nM] | PU.1 occupancy on E2f1, Junb and Csf1r promoters [2] | IC50 ([1]; read-out: IC50 URE−/−) [nM]
N=C(N)c1ccc2nc(-c3ccc(-c4nc5ccc(C(=N)N)cc5[nH]4)[se]3)[nH]c2c1 [DB1976] | decrease | 25000 | decreased | –
N=C(N)c1ccc2nc(-c3ccc(OCCCCOc4ccc(-c5nc6ccc(C(=N)N)cc6[nH]5)cc4)cc3)[nH]c2c1 [DB2115] | decrease | 700 | decreased | –
CC(C)NC(=N)c1ccc2nc(-c3ccc(OCc4cccc(COc5ccc(-c6nc7ccc(C(=N)NC(C)C)cc7[nH]6)cc5)c4F)cc3)[nH]c2c1 [DB2313, 3-Bis{4[4(5)-N-isopropylamidinobenzimidazolyl]phenoxymethyl]}-2-fluorobenzene tetrahydrochloride] | decrease | 330 | decreased | 330
